Experimental data taken from patent US20190343908A1, “Therapeutic Combination for the Treatment of Cancer” (Nerium Biotechnology Inc., priority 2011, published 2019).

Columns and labels:
[1] = system: COLO699N lung cancer cell line; experiment: Sulforhodamine B viability assay, COLO699N; type: cell-based, human; parameters: key to SRB Average: absorbance (optical density) at 570 nm, second wavelength subtracted; conditions: for Average SRB 24 h / Average SRB 48 h / Average SRB 72 h: COLO699N Run 1; for ABSORBANCE: COLO699N, 0.1 μg/mL cisplatin
Source text: (§1) Three different viability assays were chosen to complement each other and yielded results dependent on concentration and cell line: the Methyl Tetrazolium dye assay, the Sulforhodamine B fluorescent dye assay, and the Crystal Violet dye assay.
The Sulforhodamine B and Crystal Violet assays provide information about protein and were used to complement the Methyl-Tetrazolium dye assay. […] It is used for the quantification of cellular proteins of cultured cells. The assay using Crystal Violet, a dye that binds electrostatically to proteins and stains DNA, provides a reliable, simple assay for measuring viability of cells.
(§2) The Methyl Tetrazolium, Sulforhodamine B, and Crystal Violet assays were used to assess cell viabilities. The incubation times were 24 hours, 48 hours, and 72 hours. The Nerium oleander extract Anvirzel™ (a hot water extract of oleander obtained from Salud Integral, Honduras) was tested in concentrations ranging from 0.01 ng/mL to 10 ng/mL.
(§3) Cells were detached by trypsinization (Trypsin-0.25% EDTA, Invitrogen, 25200-072) during the logarithmic phase of culture growth and plated in 96-well plates (18.000 cells/well) (Corning, Costar 359) in a final volume of 200 μl of medium per well. […] The absorbance was measured after 24 hours, 48 hours, and 72 hours of incubation.
For the Sulforhodamine B assay, 96-well plates were fixed by 10% trichloroacetic acid (Fluka, 91228) and were incubated at 4° C. for 1 hour. Afterwards, plates were rinsed with water and cells were stained with 0.4% Sulforhodamine B (Sigma, 341738), dissolved in 1% acetic acid (Carlo Ebra, 401422) for 15 minutes at room temperature (RT). The unbound stain was washed twice with 1% acetic acid. Finally, 10 mM Tris Buffer pH 10.5 (Sigma, T6791) was added to dissolve the dye.
(§4) The optical density of each plate was measured on a μQuant spectrophotometer and the data were analyzed with Gen5 software (μQuant Biomolecular Spectrophotometer MQX200 and Gen5™ Microplate Data Collection & Analysis software, BioTek® Instruments. Inc, April 2008). Absorbance was measured at 570 nm for all assays and a second wavelength was measured in order to subtract noise. For the Methyl-Tetrazolium assay this second wavelength was 630 nm and for the Sulforhodamine B and Crystal Violet assays it was 690 nm.

[2] = system: HCT-116 (colorectal cancer); experiment: Methyl-Tetrazolium viability assay, HCT-116; type: cell-based, human; parameters: key: absorbance (optical density) at 570 nm, second wavelength subtracted; conditions: for Average MTT: HCT-116
Source text: as §1
The Methyl-Tetrazolium dye assay measures the activity of enzymes in mitochondria. The dye precursor is taken up by cells, where it undergoes reduction to the purple formazan. It measures only the mitochondrial activity and, thus, it is not always a reliable indication of whether the cells themselves are alive or dead, since even a recently dead cell has […] enzyme activity in mitochondria. Intracellular glucose concentration, pH, and time before assay all affect the measurements.
as §2, §3
For the Methyl-Tetrazolium assay, the dye (Sigma, M2128; 5 mg/mL, diluted in phosphate-buffered saline) was added to each well and plates were incubated for 3 hours at 37° C. After the end of the incubation period, the medium was discarded and the cells were rinsed with phosphate-buffered saline. Finally, the formazan crystals were dissolved in dimethylsulphoxide (Sigma, D4540).
as §4

`N.N.[Cl][Pt][Cl]` [cisplatin] was tested, and the “Average SRB 24 h” value ([1]; 0.1 μg/ml CDDP) was 1.552, the “Average SRB 48 h” value ([1]; 0.1 μg/ml CDDP, 48 h) was 1.317 and the “Average SRB 72 h” value ([1]; 0.1 μg/ml CDDP, 72 h) was 1.658. For the same compound, the “Average SRB 24 h” value ([1]; 1 μg/ml CDDP) was 1.526, the “Average SRB 48 h” value ([1]; 1 μg/ml CDDP, 48 h) was 1.388 and the “Average SRB 72 h” value ([1]; 1 μg/ml CDDP, 72 h) was 1.152. The “Average SRB 24 h” value ([1]; 10 μg/ml CDDP) was 1.384, the “Average SRB 48 h” value ([1]; 10 μg/ml CDDP, 48 h) was 1.524 and the “Average SRB 72 h” value ([1]; 10 μg/ml CDDP, 72 h) was 0.922. The “Average SRB 24 h” value ([1]; 100 μg/ml CDDP) was 1.085, the “Average SRB 48 h” value ([1]; 100 μg/ml CDDP, 48 h) was 1.452 and the “Average SRB 72 h” value ([1]; 100 μg/ml CDDP, 72 h) was 1.114. For the same compound, the ABSORBANCE ([1]; 48 h) was 1.975, the ABSORBANCE ([1]; 72 h) was 2.145 and the “SRB Average” value ([1]; Run 2, 24 h, 0.1 μg/ml CDDP) was 1.709. For the same compound, the “SRB Average” value ([1]; Run 2, 24 h, 1 μg/ml CDDP) was 1.61, the “SRB Average” value ([1]; Run 2, 24 h, 10 μg/ml CDDP) was 1.523 and the “SRB Average” value ([1]; Run 2, 24 h, 100 μg/ml CDDP) was 1.354. The “SRB Average” value ([1]; Run 2, 48 h, 0.1 μg/ml CDDP) was 1.975, the “SRB Average” value ([1]; Run 2, 48 h, 1 μg/ml CDDP) was 1.253 and the “SRB Average” value ([1]; Run 2, 48 h, 10 μg/ml CDDP) was 1.27. The “SRB Average” value ([1]; Run 2, 48 h, 100 μg/ml CDDP) was 1.256, the “SRB Average” value ([1]; Run 2, 72 h, 0.1 μg/ml CDDP) was 2.145 and the “SRB Average” value ([1]; Run 2, 72 h, 1 μg/ml CDDP) was 1.256. The “SRB Average” value ([1]; Run 2, 72 h, 10 μg/ml CDDP) was 1.524, the “SRB Average” value ([1]; Run 2, 72 h, 100 μg/ml CDDP) was 1.312 and the “SRB Average” value ([1]; Run 3, 24 h, 0.1 μg/ml CDDP) was 1.99. For the same compound, the “SRB Average” value ([1]; Run 3, 24 h, 1 μg/ml CDDP) was 1.839, the “SRB Average” value ([1]; Run 3, 24 h, 10 μg/ml CDDP) was 1.527 and the “SRB Average” value ([1]; Run 3, 24 h, 100 μg/ml CDDP) was 1.387. The “SRB Average” value ([1]; Run 3, 48 h, 0.1 μg/ml CDDP) was 1.978, the “SRB Average” value ([1]; Run 3, 48 h, 1 μg/ml CDDP) was 1.092 and the “SRB Average” value ([1]; Run 3, 48 h, 10 μg/ml CDDP) was 1.259. For the same compound, the “SRB Average” value ([1]; Run 3, 48 h, 100 μg/ml CDDP) was 1.218, the “SRB Average” value ([1]; Run 3, 72 h, 0.1 μg/ml CDDP) was 1.946 and the “SRB Average” value ([1]; Run 3, 72 h, 1 μg/ml CDDP) was 1.249. The “SRB Average” value ([1]; Run 3, 72 h, 10 μg/ml CDDP) was 1.014, the “SRB Average” value ([1]; Run 3, 72 h, 100 μg/ml CDDP) was 1.033 and the “MTT Average” value ([2]; HCT-116, Run 3, 24 h, 0.1 μg/ml CDDP) was 0.16. The “MTT Average” value ([2]; HCT-116, Run 3, 24 h, 1 μg/ml CDDP) was 0.041, the “MTT Average” value ([2]; HCT-116, Run 3, 24 h, 10 μg/ml CDDP) was 0.09 and the “MTT Average” value ([2]; HCT-116, Run 3, 24 h, 100 μg/ml CDDP) was 0.044. The “MTT Average” value ([2]; HCT-116, Run 3, 48 h, 0.1 μg/ml CDDP) was 0.302, the “MTT Average” value ([2]; HCT-116, Run 3, 48 h, 1 μg/ml CDDP) was 0.039 and the “MTT Average” value ([2]; HCT-116, Run 3, 48 h, 10 μg/ml CDDP) was 0.108. The “MTT Average” value ([2]; HCT-116, Run 3, 48 h, 100 μg/ml CDDP) was 0.037, the “MTT Average” value ([2]; HCT-116, Run 3, 72 h, 0.1 μg/ml CDDP) was 0.385 and the “MTT Average” value ([2]; HCT-116, Run 3, 72 h, 1 μg/ml CDDP) was 0.041. For the same compound, the “MTT Average” value ([2]; HCT-116, Run 3, 72 h, 10 μg/ml CDDP) was 0.147, the “MTT Average” value ([2]; HCT-116, Run 3, 72 h, 100 μg/ml CDDP) was 0.043 and the “Average MTT” value ([2]; Run 1, 24 h, 0.1 μg/ml CDDP) was 0.215. The “Average MTT” value ([2]; Run 1, 24 h, 1 μg/ml CDDP) was 0.037, the “Average MTT” value ([2]; Run 1, 24 h, 10 μg/ml CDDP) was 0.072 and the “Average MTT” value ([2]; Run 1, 24 h, 100 μg/ml CDDP) was 0.038. For the same compound, the “Average MTT” value ([2]; Run 1, 48 h, 0.1 μg/ml CDDP) was 0.184, the “Average MTT” value ([2]; Run 1, 48 h, 1 μg/ml CDDP) was 0.027 and the “Average MTT” value ([2]; Run 1, 48 h, 10 μg/ml CDDP) was 0.054. For the same compound, the “Average MTT” value ([2]; Run 1, 48 h, 100 μg/ml CDDP) was 0.031, the “Average MTT” value ([2]; Run 1, 72 h, 0.1 μg/ml CDDP) was 0.332 and the “Average MTT” value ([2]; Run 1, 72 h, 1 μg/ml CDDP) was 0.03. The “Average MTT” value ([2]; Run 1, 72 h, 10 μg/ml CDDP) was 0.033, the “Average MTT” value ([2]; Run 1, 72 h, 100 μg/ml CDDP) was 0.031 and the “Average MTT” value ([2]; Run 2, 24 h, 0.1 μg/ml CDDP) was 0.111. For the same compound, the “Average MTT” value ([2]; Run 2, 24 h, 1 μg/ml CDDP) was 0.053, the “Average MTT” value ([2]; Run 2, 24 h, 10 μg/ml CDDP) was 0.081 and the “Average MTT” value ([2]; Run 2, 24 h, 100 μg/ml CDDP) was 0.072. The “Average MTT” value ([2]; Run 2, 48 h, 0.1 μg/ml CDDP) was 0.179, the “Average MTT” value ([2]; Run 2, 48 h, 1 μg/ml CDDP) was 0.044 and the “Average MTT” value ([2]; Run 2, 48 h, 10 μg/ml CDDP) was 0.045. For the same compound, the “Average MTT” value ([2]; Run 2, 48 h, 100 μg/ml CDDP) was 0.04, the “Average MTT” value ([2]; Run 2, 72 h, 0.1 μg/ml CDDP) was 0.296 and the “Average MTT” value ([2]; Run 2, 72 h, 1 μg/ml CDDP) was 0.054. For the same compound, the “Average MTT” value ([2]; Run 2, 72 h, 10 μg/ml CDDP) was 0.045 and the “Average MTT” value ([2]; Run 2, 72 h, 100 μg/ml CDDP) was 0.037.
